Laboratory results reported in US20120121679A1, “VIRICIDAL AND MICROBICIDAL COMPOSITIONS AND USES THEREOF” (University of Georgia Research Foundation, Inc., priority 2009, published 2012).

What was measured:
S. typhimurium = test: Produce wash in a 4-L tank: S. typhimurium counts on apples, celery, onions, cantaloupes
yeasts and molds = test: Produce wash in a 4-L tank: yeast and mold counts; conditions: time not given
aerobic plate count = test: Produce wash in a 4-L tank: aerobic plate counts (APC); conditions: time not given
MNV-1 = conditions: 1,000 ppm, cited from earlier work

Compound	average reduction of S. typhimurium on cantaloupes (S. typhimurium; 2 min (Example 42))	reduction of S. typhimurium on onions (S. typhimurium; time not given)	average S. typhimurium count on cantaloupes (S. typhimurium; treatment time 2 min (Example 42))	reduction of yeast and mold counts on onions (yeasts and molds)	reduction of APC on onions (aerobic plate count)	reduction in MNV-1 infectivity (MNV-1; food residuals present on the surfaces)	reduction of viable MNV-1 (MNV-1; viruses dried on stainless steel surfaces without food residuals)
acidified sodium chlorite [50 ppm acidified sodium chlorite]	0.19 log CFU per cantaloupe	< 0.5 log CFU/onion	3.43 log CFU per cantaloupe	< 0.5 log CFU/onion	< 0.5 log CFU/onion		
OCl [sodium hypochlorite solution, sodium hypochlorite]						minimal reductions in MNV-1 infectivity	> 4 log Most Probable Number (MPN)/ml
